Data set [1] in a line: oral bioavailability in rats. Format: in vivo. Particulars: rat.
Data set [2] in a line: oral bioavailability in dog. In kind it is in vivo.
The nature of data set [3]: oral bioavailability in humans. As to conditions: human, in vivo, 45% coefficient of variation.
Data set [4] concerns tumor. Briefly: preclinical anti-tumor activity. Format: in vivo. As to conditions: oral Compound I versus I.V. paclitaxel.
The test system of data set [5] is NSCLC. Kind of data set: single-agent treatment of NSCLC patients. Particulars: Compound I. In kind it is in vivo, humans.
Data set [6] relates to tumor. Kind of data set: Phase I data, Compound I single agent. Format: in vivo, humans.
The subject of data set [7] is NSCLC. Particulars: chemo-naive or pre-treated NSCLC; cited from earlier work.
Data set [8] has as its system variety of tumor types, including NSCLC. Particulars: cited from earlier work.

`COC(=O)O[C@@]12CO[C@@H]1C[C@H](O)[C@@]1(C)C(=O)[C@H](OC(C)=O)C3=C(C)[C@@H](OC(=O)[C@H](O)[C@@H](NC(=O)OC(C)(C)C)C(C)(C)C)C[C@@](O)([C@@H](OC(=O)c4ccccc4)[C@H]21)C3(C)C` [Compound I, 3′-tert-butyl-3′-N-tert-butyloxycarbonyl-4-deacetyl-3′-dephenyl-3′-N-debenzoyl-4-O-methoxycarbonyl-paclitaxel]: the oral bioavailability entry in data set [1] and in data set [2] was “good oral bioavailability” in each case. The compound also returned a bioavailability in data set [3] of 24%. Further, the preclinical anti-tumor activity entry in the data set on tumor [4] is listed as “comparable to intravenous (I.V.) paclitaxel”. For the same compound, the “activity in treatment of pre-treated NSCLC” value in the data set with NSCLC [5] is reported as “promising early signs of activity”. Besides, the main toxicity entry in the data set on NSCLC [5] (pre-treated NSCLC) is reported as “transient, manageable neuropathy”. Besides, the anti-tumor activity result in the data set on tumor [6] (continuous weekly schedule, doses of 120 mg/m^2 and higher) is on record as “shows anti-tumor activity”. Also, the tolerability result in the data set with tumor [6] (doses of 120 and 200 mg/m^2) was “acceptable”. For the same compound, in the data set with tumor [6] (twice weekly schedule, doses of 60 mg/m^2 and higher, versus weekly schedule), the dose limiting toxicities entry is “may reduce dose limiting toxicities”.
Consider `Nc1nc2[nH]cc(CCc3ccc(C(=O)N[C@@H](CCC(=O)O)C(=O)O)cc3)c2c(=O)[nH]1` [Pemetrexed], for which, in the data set with NSCLC [7], the “activity in treatment of NSCLC” value is “single-agent activity” and the tolerability profile entry is “acceptable tolerability profile”. Further, in data set [8], the “anti-tumor activity in pre-clinical models” value was “has shown anti-tumor activity”.
